From the NIST ThermoML archive (doi:10.1016/j.fluid.2018.07.020)
Numbers after ± are expanded uncertainties.

Legend:
[1] = for Normal melting temperature: Crystal 1, DTA; for Triple point temperature: Crystal 2, DSC
[2] = Molar enthalpy of transition or fusion; settings: DSC

| Compound | Normal melting temperature [1] [°C] | Triple point temperature [1] [K] | Molar enthalpy of transition or fusion ([2]; Crystal 1) [kcal/mol] | Molar enthalpy of transition or fusion ([2]; Crystal 2) [kcal/mol] |
| --- | --- | --- | --- | --- |
| CC[N+](CC)(CC)CCCS(=O)(=O)[O-] [3-(triethylammonio)propane-1-sulfonate] | 172.88 ± 0.71 | 360.22 ± 0.94 | 3.66 ± 0.359 | 2.32 ± 0.335 |
| CCCCCC[N+](CCCCCC)(CCCCCC)CCCS(=O)(=O)[O-] [3-(trihexylammonio)propane-1-sulfonate] | 206.74 ± 0.71 |  | 6.79 ± 0.645 |  |
| CCCCCC[N+](CCCCCC)(CCCCCC)CCCCS(=O)(=O)[O-] [4-(trihexylammonio)butane-1-sulfonate] | 199.60 ± 0.71 | 407.51 ± 0.94 | 4.31 ± 0.669 | 1.43 ± 0.669 |
| O=S(=O)([O-])CCC[n+]1ccccc1 [[PyC3S]] | 273.89 ± 0.71 |  | 9.44 ± 0.335 |  |

More lines, now with the values ahead:

| Normal melting temperature [1] [°C] | Triple point temperature [1] [K] | Molar enthalpy of transition or fusion ([2]; Crystal 1) [kcal/mol] | Molar enthalpy of transition or fusion ([2]; Crystal 2) [kcal/mol] | Compound |
| --- | --- | --- | --- | --- |
| 160.02 ± 0.71 | 379.9 ± 0.94 | 2.32 ± 0.526 | 3.08 ± 0.526 | CCCC[P+](CCCC)(CCCC)CCCS(=O)(=O)[O-] [3-(tributylphosphonio)propane-1-sulfonate] |
| 173.57 ± 0.71 |  | 4.71 ± 0.55 |  | CCCC[P+](CCCC)(CCCC)CCCCS(=O)(=O)[O-] [4-(tributylphosphonio)butane-1-sulfonate] |
